System: hRXR α, β, or γ
Test: Transactivation assay (RARE-Luc dual luciferase reporter in HEK-293 cells), activity relative to LG268
Assay type: cell-based, human
Conditions: compound at 300 nM, 24 h; luciferase activity expressed relative to LG268
Experimental: HEK-293 cells (ATCC) were seeded one day prior to transfection. For assessing EC50 of activation of RXR isoforms 2 μg of hRXR α, β, or γ (OriGENE, USA) over-expressing vector, 1 μg of plasmid expressing firefly luciferase under RARE element (RARE-Luc) and 25 ng of renilla luciferase vector (QIAGEN, USA) were co-transfected using lipofectamine reagent. Post 24 h of transfection, cells were treated with different concentrations of RXR agonists (100 nM, 300 nM and 1 uM) for 24 h followed by estimation of luciferase activity using Dual Luciferase Reporter Assay System (Promega). Luciferase activity was normalized to that of renilla luciferase. The activities of the RXR compounds were expressed relative to LG268, a known RXR agonist.

| SMILES | Activity at 300 nM |
| --- | --- |
| Cc1c(N(CC(C)C)c2ccc(C(=O)O)c([N+](=O)[O-])c2)sc2c1C(C)(C)CCC2(C)C [Compound 51, 4-[(2-methylpropyl) (3,4,4,7,7-pentamethyl-4,5,6,7-tetrahydro-1-benzothiophen-2-yl)amino]-2-nitrobenzoic acid] | ***** (>0.6) |
| CC1(C)CC(=O)C(C)(C)c2nc(N(CC3CC3)c3ccc(C(=O)O)cn3)sc21 [Compound 52, 6-[(cyclopropylmethyl) (4,4,7,7-tetramethyl-5-oxo-4,5,6,7-tetrahydro-1,3-benzothiazol-2-yl)amino]pyridine-3-carboxylic acid] | ***** (>0.6) |
| CC(C)CN(c1ccc(C(=O)O)cc1)c1nc2c(s1)C(C)(C)CC(=O)C2(C)C [Compound 53, 4-[(2-methylpropyl) (4,4,7,7-tetramethyl-5-oxo-4,5,6,7-tetrahydro-1,3-benzothiazol-2-yl)amino]benzoic acid] | ***** (>0.6) |
| COc1cc(N(CC(C)C)c2sc3c(c2C)C(C)(C)CCC3(C)C)ccc1C(=O)O [Compound 54, 2-methoxy-4-[(2-methylpropyl)(3,4,4,7,7-pentamethyl-4,5,6,7-tetrahydro-1-benzothiophen-2-yl)amino]benzoic acid] | *** (>0.4 and <0.5) |
| Cc1c(N(CC(C)C)c2ccc(C(=O)O)c(OCC3CC3)c2)sc2c1C(C)(C)CCC2(C)C [Compound 55, 2-(cyclopropylmethoxy)-4-[(2-methylpropyl) (3,4,4,7,7-pentamethyl-4,5,6,7-tetrahydro-1-benzothiophen-2-yl)amino]benzoic acid] | *** (>0.4 and <0.5) |
| C#CCOc1cc(N(CC(C)C)c2sc3c(c2C)C(C)(C)CCC3(C)C)ccc1C(=O)O [Compound 56, 4-[(2-methylpropyl) (3,4,4,7,7-pentamethyl-4,5,6,7-tetrahydro-1-benzothiophen-2-yl)amino]-2-(prop-2-yn-1-yloxy)benzoic acid] | *** (>0.4 and <0.5) |
| Cc1c(N(CC(C)C)c2ccc(C(=O)O)c(Oc3ccccc3)c2)sc2c1C(C)(C)CCC2(C)C [Compound 57, 4-[(2-methylpropyl) (3,4,4,7,7-pentamethyl-4,5,6,7-tetrahydro-1-benzothiophen-2-yl)amino]-2-phenoxybenzoic acid] | ***** (>0.6) |
| Cc1cc(N(CC(C)C)c2nc3c(s2)C(C)(C)CCC3(C)C)ccc1C(=O)O [Compound 58, 2-methyl-4-[(2-methylpropyl) (4,4,7,7-tetramethyl-4,5,6,7-tetrahydro-1,3-benzothiazol-2-yl)amino]benzoic acid] | *** (>0.4 and <0.5) |
| Cc1cc(N(CC2CC2)c2nc3c(s2)C(C)(C)CCC3(C)C)ccc1C(=O)O [Compound 59, 4-[(cyclopropylmethyl) (4,4,7,7-tetramethyl-4,5,6,7-tetrahydro-1,3-benzothiazol-2-yl)amino]-2-methylbenzoic acid] | ** (>0.3 and <0.4) |
| Cc1cc(C(=O)O)ccc1N(CC1CC1)c1nc2c(s1)C(C)(C)CCC2(C)C [Compound 60, 4-[(cyclopropylmethyl) (4,4,7,7-tetramethyl-4,5,6,7-tetrahydro-1,3-benzothiazol-2-yl)amino]-3-methylbenzoic acid] | ** (>0.3 and <0.4) |
| Cc1cc(C(=O)O)ccc1N(CC(C)C)c1nc2c(s1)C(C)(C)CCC2(C)C [Compound 61, 3-methyl-4-[(2-methylpropyl) (4,4,7,7-tetramethyl-4,5,6,7-tetrahydro-1,3-benzothiazol-2-yl)amino]benzoic acid] | **** (>0.5 to <0.6) |
| C=CCN(c1ccc(C(=O)O)cc1)c1nc2c(s1)C(C)(C)CCC2(C)C [Compound 62, 4-[prop-2-en-1-yl(4,4,7,7-tetramethyl-4,5,6,7-tetrahydro-1,3-benzothiazol-2-yl)amino]benzoic acid] | ***** (>0.6) |
| CC1(C)CCC(C)(C)c2sc(N(c3ccc(C(=O)O)cc3)c3ccc(C(=O)O)o3)nc21 [Compound 63, 5-[(4-carboxyphenyl) (4,4,7,7-tetramethyl-4,5,6,7-tetrahydro-1,3-benzothiazol-2-yl)amino]furan-2-carboxylic acid] | *** (>0.4 and <0.5) |
| CC(C)CN(c1ccc(C(=O)O)cn1)c1nc2c(s1)C(C)(C)CCC2(C)C [Compound 64, 6-[(2-methylpropyl) (4,4,7,7-tetramethyl-4,5,6,7-tetrahydro-1,3-benzothiazol-2-yl)amino]pyridine-3-carboxylic acid] | ***** (>0.6) |
| CCCN(c1ccc(C(=O)O)cn1)c1nc2c(s1)C(C)(C)CCC2(C)C [Compound 65, 6-[propyl(4,4,7,7-tetramethyl-4,5,6,7-tetrahydro-1,3-benzothiazol-2-yl)amino]pyridine-3-carboxylic acid] | ***** (>0.6) |
| CC1(C)CCC(C)(C)c2sc(N(Cc3ccccc3)c3ccc(C(=O)O)cn3)nc21 [Compound 66, 6-[benzyl(4,4,7,7-tetramethyl-4,5,6,7-tetrahydro-1,3-benzothiazol-2-yl)amino]pyridine-3-carboxylic acid] | ***** (>0.6) |
| CC(C)CN(c1ccc(C(=O)O)nc1)c1nc2c(s1)C(C)(C)CCC2(C)C [Compound 67, 5-[(2-methylpropyl) (4,4,7,7-tetramethyl-4,5,6,7-tetrahydro-1,3-benzothiazol-2-yl)amino]pyridine-2-carboxylic acid] | * (<0.3) |
| CC1(C)CCC(C)(C)c2sc(N(CC3CC3)c3ncc(C(=O)O)cc3Cl)nc21 [Compound 68] | * (<0.3) |
| CC(C)CN(c1nc2c(s1)C(C)(C)CCC2(C)C)c1ncc(C(=O)O)cc1Cl [Compound 69, 5-chloro-6-[(2-methylpropyl) (4,4,7,7-tetramethyl-4,5,6,7-tetrahydro-1,3-benzothiazol-2-yl)amino]pyridine-3-carboxylic acid] | * (<0.3) |
| CC1(C)CCC(C)(C)c2sc(N(CC3CC3)c3cc(Cl)c(C(=O)O)cn3)nc21 [Compound 70, 4-chloro-6-[(cyclopropylmethyl) (4,4,7,7-tetramethyl-4,5,6,7-tetrahydro-1,3-benzothiazol-2-yl)amino]pyridine-3-carboxylic acid] | ***** (>0.6) |
| COc1cc(C(=O)O)ccc1N(CC1CC1)c1nc2c(s1)C(C)(C)CCC2(C)C [Compound 71, 4-[(cyclopropylmethyl) (4,4,7,7-tetramethyl-4,5,6,7-tetrahydro-1,3-benzothiazol-2-yl)amino]-3-methoxybenzoic acid] | * (<0.3) |
| COc1cc(N(CC2CC2)c2nc3c(s2)C(C)(C)CCC3(C)C)ccc1C(=O)O [Compound 72] | * (<0.3) |
| COc1cc(N(CC(C)C)c2nc3c(s2)C(C)(C)CCC3(C)C)ccc1C(=O)O [Compound 73, 2-methoxy-4-[(2-methylpropyl) (4,4,7,7-tetramethyl-4,5,6,7-tetrahydro-1,3-benzothiazol-2-yl)amino]benzoic acid] | ** (>0.3 and <0.4) |

From patent US9862713B2, “Substituted bicyclic heteroaryl compounds as RXR agonists” (CONNEXIOS LIFE SCIENCES PVT. LTD., priority 2014, dated 2018)
